In patent US9012502B2, “Cancer heat therapy-enhancing agent” (SBI Pharmaceuticals Co., Ltd., priority 2010, dated 2015):

Assays:
normal cell line WI-38 = test: Measuring intracellular PpIX concentration by HPLC; assay type: cell-based, human; conditions: WI-38, regardless of the 5-ALA concentration added, 37 or 42° C.
Procedure: (§1) These two types of cells were cultured at 37 or 42° C. for 24 hours in a DME medium containing 10% FBS and 5-ALA at a concentration of 0, 0.5, 1, or 2 mM. Next, the cells were harvested using trypsin treatment. Then, the number of cells contained in a measurement sample was adjusted using a hemocytometer at 1×10^4. After that, the cells were lysed with NaOH, and treated with a DMF solution (i.e., a mixture of N,N-dimethylformamide:2-propanol=100:1). The resulting cell lysate was centrifuged at 13,000 rpm and 4° C. for 10 minutes to collect a supernatant. Subsequently, the supernatant was reacted at room temperature for 24 hours. Finally, the resulting supernatant was used as a measurement sample, and was subjected to a PpIX concentration measurement using HPLC.

[1] = test system: colon cancer-derived cell line Caco-2; test: Hyperthermia sensitivity test using flow cytometry; assay type: cell-based; conditions: for fraction of dead cells (%), increase compared with 5-ALA-free cells: 42° C.
Procedure: (§2) To investigate what kind of effect the addition of 5-ALA could exert on hyperthermia sensitivity of cancer cells, a hyperthermia sensitivity test was performed using a flow cytometry technique as follows.
(§3) First, a human fibrosarcoma cell line HT-1080 and a colon cancer-derived cell line Caco-2 were prepared as cancer cell lines, and a human fibroblast line WI-38 and a murine fibroblast line NIH3T3 were prepared as normal cell lines. Also, prepared was a human embryonic kidney cell line HEK293 transformed so as to overgrow like cancer cells. These cells were cultured at 37° C. for 24 hours in 10% FBS-containing DME medium, and split into 8 groups. Next, the medium was replaced by an FBS-free DME medium. Then, 5-aminolevulinic acid (5-ALA) was added to each group at a final concentration of 0.5 mM, 1.0 mM, or 2.0 mM, and cultured at 37° C. for 2 hours. After that, 10% FBS was added, and the resulting cell groups were incubated […] for 24 hours. In addition, 5-ALA-free cell groups were likewise incubated at 37 or 42° C. for 24 hours. All the above culture processes were conducted in the dark, so that an ultraviolet light, visible light, infrared light, or radiation, etc., was never used for irradiation.
(§4) With regard to the fraction of dead cells, a total number of cells having apoptosis and necrosis was counted, and a ratio of the total number to the number of all cells was calculated. […] Of note is little enhancement of the cell death-inducing effect in normal cells.

[2] = test system: human fibroblast line WI-38; test: Hyperthermia sensitivity test using flow cytometry; assay type: cell-based; conditions: normal cells WI-38, 42° C.
Procedure: as §2, §3, §4

[3] = test system: human fibrosarcoma cell line HT-1080; test: Hyperthermia sensitivity test using flow cytometry; assay type: cell-based; conditions: for fraction of dead cells (%), increase compared with 5-ALA-free cells: 42° C.
Procedure: as §2, §3, §4

[4] = test system: murine fibroblast line NIH3T3; test: Hyperthermia sensitivity test using flow cytometry; assay type: cell-based; conditions: normal cells NIH3T3, 42° C.
Procedure: as §2, §3, §4

[5] = test system: human embryonic kidney cell line HEK293 transformed so as to overgrow like cancer cells; test: Hyperthermia sensitivity test using flow cytometry; assay type: cell-based; conditions: for fraction of dead cells (%), increase compared with 5-ALA-free cells: 42° C.
Procedure: as §2, §3, §4

[6] = test system: transformed human embryonic kidney cell line HEK293; test: Measuring intracellular PpIX concentration by HPLC; assay type: cell-based; conditions: for intracellular PpIX concentration, increase compared with 5-ALA-free cells: 42° C. for 24 hours
Procedure: as §1

[7] = test system: colon cancer-derived cell line Caco-2; test: Hyperthermia sensitivity test using trypan blue reagent; assay type: cell-based; conditions: for fraction of dead cells (%), increase compared with 5-ALA-free cells: 42° C.
Text: (§5) A colon cancer-derived cell line Caco-2, a human hepatoma-derived cell line HepG2, a human gastric cancer-derived cell line KatoIII, and a human cervical cancer-derived cell line HeLa were used as cancer cell lines. A human embryonic kidney cell line HEK293 was used as cells transformed so as to overgrow like cancer cells. A human normal diploid fibroblast line WI-38, a murine fibroblast-like cell line NIH3T3, and a human embryonic lung-derived normal fibroblast MRCS were used as normal cells. Each of these cells was cultured at 37 or 42° C. for 24 hours in a DME medium containing 10% FBS and 5-ALA at a concentration of 0, 0.5, 1, or 2 mM, and treated with trypsin for cell harvest. Then, equal volumes of the harvested cell-containing solution and a trypan blue reagent were mixed, and the number of the cells was counted with a hemocytometer to calculate the fraction of dead cells (cells stained with trypan blue) (%; percent cell death).

[8] = test system: murine fibroblast-like cell line NIH3T3; test: as above; assay type: cell-based; conditions: normal cells NIH3T3, 42° C.
Text: as §5

[9] = test system: human embryonic kidney cell line HEK293; test: as above; assay type: cell-based; conditions: for fraction of dead cells (%), increase compared with 5-ALA-free cells: 42° C.
Text: as §5

[10] = test system: human cervical cancer-derived cell line HeLa; test: as above; assay type: cell-based
Text: as §5

[11] = test system: human embryonic lung-derived normal fibroblast MRCS; test: as above; assay type: cell-based; conditions: 42° C.
Text: as §5

[12] = test system: human hepatoma-derived cell line HepG2; test: as above; assay type: cell-based; conditions: for fraction of dead cells (%), increase compared with 5-ALA-free cells: 42° C.
Text: as §5

[13] = test system: human normal diploid fibroblast line WI-38; test: as above; assay type: cell-based; conditions: normal cells WI-38, 42° C.
Text: as §5

[14] = test system: human gastric cancer-derived cell line KatoIII; test: as above; assay type: cell-based
Text: as §5

[15] = 37° C., each concentration of 5-ALA

NCC(=O)CCC(=O)O [5-ALA, 5-aminolevulinic acid]
intracellular PpIX concentration (in words) (normal cell line WI-38): detection limit or less
fraction of dead cells (%), increase compared with 5-ALA-free cells ([1]; Caco-2, 0.5 mM 5-ALA): about 2.1 times
fraction of dead cells (%), increase compared with 5-ALA-free cells ([1]; Caco-2, 1.0 mM 5-ALA): about 2.0 times
fraction of dead cells (%), increase compared with 5-ALA-free cells ([1]; Caco-2, 2.0 mM 5-ALA): about 1.9 times
fraction of dead cells (in words) ([1]; Caco-2, 37° C.): somewhat increased
fraction of dead cells (in words) ([1]; Caco-2, 42° C.): increase markedly
5-ALA concentration-dependent cell death (in words) [2]: not enhanced
fraction of dead cells (%), increase compared with 5-ALA-free cells ([3]; HT-1080, 0.5 mM 5-ALA): about 1.7 times
fraction of dead cells (%), increase compared with 5-ALA-free cells ([3]; HT-1080, 1.0 mM 5-ALA): about 1.5 times
fraction of dead cells (%), increase compared with 5-ALA-free cells ([3]; HT-1080, 2.0 mM 5-ALA): about 2.3 times
fraction of dead cells (in words) ([3]; HT-1080, 37° C.): somewhat increased
fraction of dead cells (in words) ([3]; HT-1080, 42° C.): increase markedly
5-ALA concentration-dependent cell death (in words) [4]: not enhanced
fraction of dead cells (%), increase compared with 5-ALA-free cells ([5]; HEK293, 0.5 mM 5-ALA): about 3.2 times
fraction of dead cells (%), increase compared with 5-ALA-free cells ([5]; HEK293, 1.0 mM 5-ALA): about 4.8 times
fraction of dead cells (%), increase compared with 5-ALA-free cells ([5]; HEK293, 2.0 mM 5-ALA): about 6.0 times
fraction of dead cells (in words) ([5]; HEK293, 37° C.): somewhat increased
fraction of dead cells (in words) ([5]; HEK293, 42° C.): increase markedly
intracellular PpIX concentration, increase compared with 5-ALA-free cells ([6]; HEK293, 0.5 mM 5-ALA): about 2.75 times
intracellular PpIX concentration, increase compared with 5-ALA-free cells ([6]; HEK293, 1.0 mM 5-ALA): about 6.3 times
intracellular PpIX concentration, increase compared with 5-ALA-free cells ([6]; HEK293, 2.0 mM 5-ALA): about 5.9 times
PpIX concentration in the HEK293 cell line (in words) ([6]; culture conditions at 42° C.): increased depending on the 5-ALA concentration
fraction of dead cells (%), increase compared with 5-ALA-free cells ([7]; Caco-2, 0.5 mM 5-ALA): about 1.2 times
fraction of dead cells (%), increase compared with 5-ALA-free cells ([7]; Caco-2, 1.0 mM 5-ALA): about 1.7 times
fraction of dead cells (%), increase compared with 5-ALA-free cells ([7]; Caco-2, 2.0 mM 5-ALA): about 1.6 times
fraction of dead cells (in words) ([7]; Caco-2, 37° C., each concentration of 5-ALA): did not increase
fraction of dead cells (in words) ([7]; Caco-2, 42° C.): markedly increased depending on the 5-ALA concentration
increase in the fraction of dead cells depending on the 5-ALA concentration (in words) [8]: no increase
fraction of dead cells (%), increase compared with 5-ALA-free cells ([9]; HEK293, 0.5 mM 5-ALA): about 1.6 times
fraction of dead cells (%), increase compared with 5-ALA-free cells ([9]; HEK293, 1.0 mM 5-ALA): about 2.0 times
fraction of dead cells (%), increase compared with 5-ALA-free cells ([9]; HEK293, 2.0 mM 5-ALA): about 3.5 times
fraction of dead cells (in words) ([9]; HEK293, 37° C., each concentration of 5-ALA): did not increase
fraction of dead cells (in words) ([9]; HEK293, 42° C.): markedly increased depending on the 5-ALA concentration
fraction of dead cells (%), increase compared with 5-ALA-free cells ([10]; 0.5 mM 5-ALA, 42° C.): about 1.4 times
fraction of dead cells (%), increase compared with 5-ALA-free cells ([10]; 1.0 mM 5-ALA, 42° C.): about 1.5 times
fraction of dead cells (%), increase compared with 5-ALA-free cells ([10]; 2.0 mM 5-ALA, 42° C.): about 1.6 times
fraction of dead cells (in words) [10, 15]: did not increase
fraction of dead cells (in words) ([10]; 42° C.): markedly increased depending on the 5-ALA concentration
increase in the fraction of dead cells depending on the 5-ALA concentration (in words) [11]: no increase
fraction of dead cells (%), increase compared with 5-ALA-free cells ([12]; HepG2, 0.5 mM 5-ALA): about 1.1 times
fraction of dead cells (%), increase compared with 5-ALA-free cells ([12]; HepG2, 1.0 mM 5-ALA): about 1.35 times
fraction of dead cells (%), increase compared with 5-ALA-free cells ([12]; HepG2, 2.0 mM 5-ALA): about 1.5 times
fraction of dead cells (in words) ([12]; HepG2, 37° C., each concentration of 5-ALA): did not increase
fraction of dead cells (in words) ([12]; HepG2, 42° C.): markedly increased depending on the 5-ALA concentration
increase in the fraction of dead cells depending on the 5-ALA concentration (in words) [13]: no increase
fraction of dead cells (%), increase compared with 5-ALA-free cells ([14]; 0.5 mM 5-ALA, 42° C.): about 1.8 times
fraction of dead cells (%), increase compared with 5-ALA-free cells ([14]; 1.0 mM 5-ALA, 42° C.): about 1.8 times
fraction of dead cells (%), increase compared with 5-ALA-free cells ([14]; 2.0 mM 5-ALA, 42° C.): about 1.8 times
fraction of dead cells (in words) [14, 15]: did not increase
fraction of dead cells (in words) ([14]; 42° C.): markedly increased depending on the 5-ALA concentration
